Laboratory results from US20250109104A1, “SQUARAINE FLUOROPHORES” (The General Hospital Corporation, priority 2022, published 2025).

Key:
cancer = details: in vivo; cited from earlier work
tumors = assay: Intraoperative NIR imaging for fluorescence guided surgery (FGS) in tumor-bearing mice; assay type: in vivo
Experimental: FIG. 5 depicts intraoperative imaging of OCTL14 for fluorescence guided surgery (FGS). (a) FGS using the squaraine. Tumor-bearing mice were intravenously injected with 100 nmol of OCTL14. FGS was performed 6 h post-injection. The yellow circle indicates the lesions for which intraoperative image-guided surgeries were performed. The middle panels show the tumor locations before/after surgery and resected tumors of different sizes. Scale bars=1 cm. (b) Clinical impact of the use of OCTL14. The number of tumors detected using color images only was compared to those detected using NIR imaging by experienced surgeons.
Structure-inherent targeting: Squaraines are selectively taken up by cancer cells via organic cation transporters (OCTs), overexpressed by cancer cells (FIG. 4). This high affinity is mediated by the unique structure of the molecule. This was achieved this by introducing an asymmetric molecular conformation and surface charges. In this way, squaraines can be up-taken rapidly via transporter and selectively accumulate in cancer cells, not normal cells. In addition, we have shown that once they are taken up by cancer cells, squaraines can stay in lysosomes for hours for durable imaging. This feature is critical to have a clear contrast between cancerous and normal tissue for clear cancer imaging during surgery or medical procedures.

SMILES	blood half-life (cancer)	cancer targeting capability (cancer)	localization of cancer tissues (tumors; 6 h post-injection, 100 nmol intravenously, tumor-bearing mice)	resection of tumors under image guidance (tumors; FGS 6 h post-injection)	residual tumor after FGS (tumors; FGS 6 h post-injection)
CC1(C)C(/C=C/C=C/C=C/C=C2\N(CCCCS(=O)(=O)O)c3ccc4ccccc4c3C2(C)C)=[N+](CCCCS(=O)(=O)[O-])c2ccc3ccccc3c21 [ICG, indocyanine green]	short blood half-life	no specific cancer targeting capability	–	–	–
Br.C[N+]1=C(/C=C2\C(=O)C(/C=C3/N(CCC[N+](C)(C)C)c4ccc(F)cc4C3(C)C)=C2[O-])C(C)(C)c2ccccc21.[I-] [OCTL14, Mono ((Z)-2-((E)-(5-fluoro-3,3-dimethyl-1-(3-(trimethylammonio)propyl)indolin-2-ylidene)methyl)-3-oxo-4-((1,3,3-trimethyl-3H-indol-1-ium-2-yl)methylene)cyclobut-1-enolate) mono bromide monoiodide]	–	–	precise localization of cancer tissues	complete resection of tumors	no residual tumor
